Assay results: patent publication US20130065868A1, “ANXIOYTIC MARCGRAVIACEAE COMPOSITIONS CONTAINING BETULINIC ACID, BETULINIC ACID DERIVATIVES, AND METHODS” (UNIVERSITY OF OTTAWA, priority 2002, published 2013)

Legend:
[1] = target: Histamine H2 (Homo sapiens, UniProt P25021); experiment: MDS Panlabs screen: Histamine H2; assay type: binding
Procedure: (§1) Tests were conducted by MDS Panlabs to determine whether any of the classical neurotransmitter systems or the peptidergic systems thought to play a role in anxiety are affected by betulinic acid.

[2] = target: VIP1 (Homo sapiens, UniProt P32241); experiment: MDS Panlabs screen: VIP1; assay type: binding; conditions: Peptides
Chain of VIP1 (P32241 31-457): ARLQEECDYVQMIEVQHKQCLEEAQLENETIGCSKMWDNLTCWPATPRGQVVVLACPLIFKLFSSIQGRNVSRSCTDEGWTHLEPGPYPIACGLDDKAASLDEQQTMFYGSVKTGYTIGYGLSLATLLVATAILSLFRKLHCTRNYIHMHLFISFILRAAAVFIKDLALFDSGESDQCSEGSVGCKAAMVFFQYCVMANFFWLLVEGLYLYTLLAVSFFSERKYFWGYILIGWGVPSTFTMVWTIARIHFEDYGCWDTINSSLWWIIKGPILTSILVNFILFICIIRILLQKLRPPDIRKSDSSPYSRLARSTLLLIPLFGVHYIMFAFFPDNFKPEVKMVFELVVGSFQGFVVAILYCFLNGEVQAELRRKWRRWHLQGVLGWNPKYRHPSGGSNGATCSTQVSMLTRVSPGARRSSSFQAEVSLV
Procedure: as §1

[3] = target: cannabinoid C131 (Homo sapiens, UniProt P21554); experiment: MDS Panlabs screen: cannabinoid (first subtype); assay type: binding; conditions: Peptides
Chain of cannabinoid C131 (P21554 whole entry): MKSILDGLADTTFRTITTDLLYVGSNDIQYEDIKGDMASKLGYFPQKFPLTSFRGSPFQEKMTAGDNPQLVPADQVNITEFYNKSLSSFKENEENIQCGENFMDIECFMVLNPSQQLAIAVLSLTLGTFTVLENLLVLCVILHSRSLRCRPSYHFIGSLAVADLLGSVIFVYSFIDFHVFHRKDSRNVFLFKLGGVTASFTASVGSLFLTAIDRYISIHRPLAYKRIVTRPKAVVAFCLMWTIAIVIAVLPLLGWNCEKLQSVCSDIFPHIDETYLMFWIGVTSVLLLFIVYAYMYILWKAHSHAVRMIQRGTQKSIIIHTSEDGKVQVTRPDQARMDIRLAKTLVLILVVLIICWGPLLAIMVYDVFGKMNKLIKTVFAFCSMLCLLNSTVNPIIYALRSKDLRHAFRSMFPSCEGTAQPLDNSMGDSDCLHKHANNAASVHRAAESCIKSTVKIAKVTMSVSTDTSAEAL
Procedure: as §1

[4] = target: NE transporter (Homo sapiens, UniProt P23975); experiment: MDS Panlabs screen: NE transporter; assay type: binding; conditions: Catecholamines
Chain of NE transporter (P23975 whole entry): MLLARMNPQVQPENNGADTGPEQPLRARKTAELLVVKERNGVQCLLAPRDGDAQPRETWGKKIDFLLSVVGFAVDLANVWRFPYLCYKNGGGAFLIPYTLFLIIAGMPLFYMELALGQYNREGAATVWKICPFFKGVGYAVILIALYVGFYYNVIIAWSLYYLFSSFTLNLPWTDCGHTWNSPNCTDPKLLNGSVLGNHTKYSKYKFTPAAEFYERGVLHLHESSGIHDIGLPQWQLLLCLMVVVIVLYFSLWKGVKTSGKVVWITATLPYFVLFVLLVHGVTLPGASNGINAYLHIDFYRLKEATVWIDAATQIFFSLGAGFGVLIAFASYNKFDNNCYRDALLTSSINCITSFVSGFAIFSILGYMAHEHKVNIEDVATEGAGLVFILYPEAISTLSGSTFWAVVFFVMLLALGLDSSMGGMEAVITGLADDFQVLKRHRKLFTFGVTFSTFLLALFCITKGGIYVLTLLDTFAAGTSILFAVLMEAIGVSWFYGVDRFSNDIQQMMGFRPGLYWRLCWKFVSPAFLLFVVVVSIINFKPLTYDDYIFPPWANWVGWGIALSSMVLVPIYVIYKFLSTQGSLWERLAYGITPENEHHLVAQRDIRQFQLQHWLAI
Procedure: as §1

[5] = system: GABA C1-channel; experiment: MDS Panlabs screen: GABA channel; assay type: binding; conditions: Gabaergic
Procedure: as §1

[6] = target: tachykinin NK1 (Homo sapiens, UniProt P25103); experiment: MDS Panlabs screen: tachykinin NK1; assay type: binding; conditions: Peptides
Chain of tachykinin NK1 (P25103 whole entry): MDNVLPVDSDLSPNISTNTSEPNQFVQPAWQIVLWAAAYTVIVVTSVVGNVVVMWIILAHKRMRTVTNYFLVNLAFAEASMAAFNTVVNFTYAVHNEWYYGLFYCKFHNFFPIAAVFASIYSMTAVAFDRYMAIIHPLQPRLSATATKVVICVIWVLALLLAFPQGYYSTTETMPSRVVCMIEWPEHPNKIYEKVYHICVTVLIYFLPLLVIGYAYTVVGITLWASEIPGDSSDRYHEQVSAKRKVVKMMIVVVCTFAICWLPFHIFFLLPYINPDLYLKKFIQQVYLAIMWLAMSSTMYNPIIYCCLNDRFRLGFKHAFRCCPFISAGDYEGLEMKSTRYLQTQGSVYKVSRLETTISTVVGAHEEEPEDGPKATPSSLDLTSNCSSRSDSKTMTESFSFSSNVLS
Procedure: as §1

[7] = system: interleukin IL-1α; experiment: MDS Panlabs screen: interleukin IL-1α; assay type: binding; conditions: Peptides
Procedure: as §1

[8] = system: adrenergic α1; experiment: MDS Panlabs screen: adrenergic α1; assay type: binding; conditions: Catecholamines
Procedure: as §1

[9] = system: 5-HT1; experiment: MDS Panlabs screen: 5-HT1; assay type: binding; conditions: Serotonin (5-HT)
Procedure: as §1

[10] = target: MAO A (Homo sapiens, UniProt P21397); experiment: MDS Panlabs screen: MAO A; assay type: biochemical; conditions: Catecholamines
Chain of MAO A (P21397 whole entry, species assumed): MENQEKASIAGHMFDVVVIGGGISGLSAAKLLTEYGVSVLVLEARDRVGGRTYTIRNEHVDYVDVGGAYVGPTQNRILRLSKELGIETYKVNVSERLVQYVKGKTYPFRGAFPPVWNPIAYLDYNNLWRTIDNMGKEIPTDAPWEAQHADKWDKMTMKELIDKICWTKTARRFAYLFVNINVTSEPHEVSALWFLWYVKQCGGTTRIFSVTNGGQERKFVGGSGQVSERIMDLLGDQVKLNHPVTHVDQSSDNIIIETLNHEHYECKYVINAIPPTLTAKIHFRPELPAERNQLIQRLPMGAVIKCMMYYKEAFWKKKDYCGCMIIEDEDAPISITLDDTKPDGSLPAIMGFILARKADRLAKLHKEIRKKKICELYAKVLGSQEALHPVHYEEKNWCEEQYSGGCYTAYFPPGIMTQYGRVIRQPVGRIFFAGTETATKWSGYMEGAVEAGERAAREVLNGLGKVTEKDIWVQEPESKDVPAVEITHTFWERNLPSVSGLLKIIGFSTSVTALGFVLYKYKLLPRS
Procedure: as §1

[11] = target: 5-HT3 (Homo sapiens, UniProt P46098); experiment: MDS Panlabs screen: 5-HT3; assay type: binding; conditions: Serotonin (5-HT)
Procedure: as §1

[12] = system: Sprague Dawley rats; experiment: Locomotor activity after chronic administration; assay type: in vivo, rat; conditions: chronic 0.5 mg/kg daily orally, one night 5 p.m. to 7 a.m. (FIG. 11)
Procedure: Test animals and drug treatments were as in Example 14. Locomotor activity was recorded for one night (5 p.m. to 7 a.m. the following morning) in the control as well as in the betulinic acid and methyl ester of betulinic acid exposed groups. Locomotor activity was monitored using infrared sensors located on the roof of the animals' cage. Eight independent sensors monitored activity of animals according to the number of quadrants traversed.

[13] = target: GLP-1 (Homo sapiens, UniProt P43220); experiment: MDS Panlabs screen: GLP-1; assay type: binding; conditions: Peptides
Chain of GLP-1 (P43220 24-463): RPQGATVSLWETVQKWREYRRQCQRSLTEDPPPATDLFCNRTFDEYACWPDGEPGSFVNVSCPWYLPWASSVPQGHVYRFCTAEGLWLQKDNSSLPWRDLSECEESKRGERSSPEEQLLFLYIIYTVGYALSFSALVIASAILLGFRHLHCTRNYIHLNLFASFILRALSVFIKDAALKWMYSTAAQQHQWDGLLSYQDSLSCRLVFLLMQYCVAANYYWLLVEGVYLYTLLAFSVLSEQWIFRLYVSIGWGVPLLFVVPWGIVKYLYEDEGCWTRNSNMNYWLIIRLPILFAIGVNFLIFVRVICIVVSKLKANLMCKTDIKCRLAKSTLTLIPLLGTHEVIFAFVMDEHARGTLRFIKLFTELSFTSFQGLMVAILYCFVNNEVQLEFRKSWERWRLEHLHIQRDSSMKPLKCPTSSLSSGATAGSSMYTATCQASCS
Procedure: as §1

[14] = target: cannabinoid CB2 (Homo sapiens, UniProt P34972); experiment: MDS Panlabs screen: cannabinoid CB2; assay type: binding; conditions: Peptides
Chain of cannabinoid CB2 (P34972 whole entry): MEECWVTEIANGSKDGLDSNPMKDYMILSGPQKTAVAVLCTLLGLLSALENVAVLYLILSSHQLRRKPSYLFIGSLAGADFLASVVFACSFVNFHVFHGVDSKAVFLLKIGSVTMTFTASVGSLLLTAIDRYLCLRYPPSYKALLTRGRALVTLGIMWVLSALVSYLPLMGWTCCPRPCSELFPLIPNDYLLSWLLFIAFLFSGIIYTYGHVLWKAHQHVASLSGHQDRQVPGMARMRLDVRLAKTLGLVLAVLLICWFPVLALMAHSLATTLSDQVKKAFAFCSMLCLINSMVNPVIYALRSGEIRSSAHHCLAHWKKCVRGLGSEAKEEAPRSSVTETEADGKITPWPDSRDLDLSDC
Procedure: as §1

[15] = system: GABAA, BZP; experiment: MDS Panlabs screen: GABAA, BZP; assay type: binding; conditions: Gabaergic
Procedure: as §1

[16] = system: Sigma non-selective; experiment: MDS Panlabs screen: Sigma non-selective; assay type: binding
Procedure: as §1

[17] = Acute or chronic toxicity at repeated doses; assay type: in vivo; conditions: 500 mg/kg vs anxiolytic dose
From the text: This is a dose 1000 times higher than that needed to reduce anxiety.

[18] = target: serotonin transporter (Homo sapiens, UniProt P31645); experiment: MDS Panlabs screen: serotonin transporter; assay type: binding; conditions: Serotonin (5-HT)
Chain of serotonin transporter (P31645 whole entry): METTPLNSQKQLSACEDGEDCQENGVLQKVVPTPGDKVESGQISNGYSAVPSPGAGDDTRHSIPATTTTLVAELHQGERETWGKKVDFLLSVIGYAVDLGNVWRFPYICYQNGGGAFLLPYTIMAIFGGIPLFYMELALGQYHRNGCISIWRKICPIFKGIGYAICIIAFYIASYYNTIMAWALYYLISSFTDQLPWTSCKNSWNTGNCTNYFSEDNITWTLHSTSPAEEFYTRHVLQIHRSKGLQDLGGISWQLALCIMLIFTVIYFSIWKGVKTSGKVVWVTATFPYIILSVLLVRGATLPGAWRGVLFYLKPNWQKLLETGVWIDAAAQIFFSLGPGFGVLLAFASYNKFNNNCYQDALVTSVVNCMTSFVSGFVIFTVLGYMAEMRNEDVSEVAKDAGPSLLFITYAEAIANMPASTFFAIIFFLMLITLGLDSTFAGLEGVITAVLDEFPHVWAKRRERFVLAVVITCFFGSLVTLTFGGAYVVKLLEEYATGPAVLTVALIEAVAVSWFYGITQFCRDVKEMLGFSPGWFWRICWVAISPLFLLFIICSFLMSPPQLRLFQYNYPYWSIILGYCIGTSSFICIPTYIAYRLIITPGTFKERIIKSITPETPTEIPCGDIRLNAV
Procedure: as §1

[19] = target: domaine D2 (Homo sapiens, UniProt P14416); experiment: MDS Panlabs screen: D2; assay type: binding; conditions: Catecholamines
Procedure: as §1

[20] = target: 5-HT1A (Homo sapiens, UniProt P08908); experiment: MDS Panlabs screen: 5-HT1A; assay type: binding; conditions: Serotonin (5-HT)
Chain of 5-HT1A (P08908 whole entry, species assumed): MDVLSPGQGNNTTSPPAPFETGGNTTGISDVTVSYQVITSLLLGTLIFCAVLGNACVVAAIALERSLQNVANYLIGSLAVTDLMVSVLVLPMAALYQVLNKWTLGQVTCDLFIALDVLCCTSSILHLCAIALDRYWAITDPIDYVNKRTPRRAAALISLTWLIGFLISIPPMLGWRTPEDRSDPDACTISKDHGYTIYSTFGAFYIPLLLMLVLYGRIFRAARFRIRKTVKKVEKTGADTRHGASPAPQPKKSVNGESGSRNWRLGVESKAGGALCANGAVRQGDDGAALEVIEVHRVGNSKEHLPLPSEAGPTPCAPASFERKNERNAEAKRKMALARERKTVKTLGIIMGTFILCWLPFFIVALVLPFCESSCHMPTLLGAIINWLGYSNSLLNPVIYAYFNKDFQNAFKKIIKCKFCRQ
Procedure: as §1

[21] = system: opiate non-selective; experiment: MDS Panlabs screen: opiate non-selective; assay type: binding; conditions: Peptides
Procedure: as §1

[22] = Weight gain over chronic treatment; assay type: in vivo, rat; conditions: rats, chronic 0.5 mg/kg daily orally (FIG. 12)

Chain of Histamine H2 (P25021 whole entry): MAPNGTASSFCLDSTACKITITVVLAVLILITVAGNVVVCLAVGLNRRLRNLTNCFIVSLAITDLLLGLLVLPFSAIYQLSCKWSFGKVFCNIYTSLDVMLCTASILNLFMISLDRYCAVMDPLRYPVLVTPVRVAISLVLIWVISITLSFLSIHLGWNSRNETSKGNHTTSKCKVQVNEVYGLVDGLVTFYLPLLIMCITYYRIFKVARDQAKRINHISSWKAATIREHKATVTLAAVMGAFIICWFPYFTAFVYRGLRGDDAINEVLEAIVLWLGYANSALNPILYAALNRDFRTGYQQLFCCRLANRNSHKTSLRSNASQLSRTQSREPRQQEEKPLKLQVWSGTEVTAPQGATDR

SMILES: C=C(C)[C@@H]1CC[C@]2(C(=O)O)CC[C@]3(C)C(CC[C@@H]4[C@@]5(C)CC[C@H](O)C(C)(C)[C@@H]5CC[C@]43C)[C@@H]12 (stereo partly shown) [betulinic acid, Betulinic acid]
- affected by betulinic acid [1]: none of the following neurotransmitters or proteins were affected
- affected by betulinic acid [2]: none of the following neurotransmitters or proteins were affected
- affected by betulinic acid [3]: none of the following neurotransmitters or proteins were affected
- affected by betulinic acid [4]: none of the following neurotransmitters or proteins were affected
- affected by betulinic acid [5]: none of the following neurotransmitters or proteins were affected
- affected by betulinic acid [6]: none of the following neurotransmitters or proteins were affected
- affected by betulinic acid [7]: none of the following neurotransmitters or proteins were affected
- affected by betulinic acid [8]: none of the following neurotransmitters or proteins were affected
- affected by betulinic acid [9]: none of the following neurotransmitters or proteins were affected
- affected by betulinic acid [10]: none of the following neurotransmitters or proteins were affected
- affected by betulinic acid [11]: none of the following neurotransmitters or proteins were affected
- adverse effect on locomotor activity or pattern [12]: neither betulinic acid nor the methyl ester of betulinic acid had an adverse effect on locomotor activity or pattern
- affected by betulinic acid [13]: none of the following neurotransmitters or proteins were affected
- affected by betulinic acid [14]: none of the following neurotransmitters or proteins were affected
- affected by betulinic acid [15]: none of the following neurotransmitters or proteins were affected
- affected by betulinic acid [16]: none of the following neurotransmitters or proteins were affected
- non-toxic dose relative to the dose needed to reduce anxiety [17]: 1000 times
- affected by betulinic acid [18]: none of the following neurotransmitters or proteins were affected
- affected by betulinic acid [19]: none of the following neurotransmitters or proteins were affected
- affected by betulinic acid [20]: none of the following neurotransmitters or proteins were affected
- affected by betulinic acid [21]: none of the following neurotransmitters or proteins were affected
- effect of chronic drug treatment on weight gain [22]: did not seem to affect weight gain in a significant manner
